Test results: BindingDB's records for doi:10.1016/j.bioorg.2015.02.009 (Kyushu Institute of Technology, 2015)

Experiments:
Assay in all cases: HDAC Enzyme Activity Assay
Histone deacetylase 1 = Histone deacetylase 1 (Homo sapiens, UniProt Q13547)
Experimental: (§1) For the enzyme assay, 10 µL of the enzyme fraction was added to 1 µL of fluorescent substrate (2 mM Ac-KGLGK(Ac)-MCA) and 9 µL of histone deacetylase buffer, and the mixture was incubated at 37 °C for 30 min. The reaction was stopped by the addition of 30 µL of trypsin (20 mg/mL) and incubated at 37 °C for 15 min. The released amino methyl coumarin (AMC) was measured using a fluorescence plate reader. DTT was added simultaneously with drugs to the enzyme solutions

Histone deacetylase 4 = Histone deacetylase 4 (Homo sapiens, UniProt P56524)
Histone deacetylase 4, sequence (P56524 whole entry): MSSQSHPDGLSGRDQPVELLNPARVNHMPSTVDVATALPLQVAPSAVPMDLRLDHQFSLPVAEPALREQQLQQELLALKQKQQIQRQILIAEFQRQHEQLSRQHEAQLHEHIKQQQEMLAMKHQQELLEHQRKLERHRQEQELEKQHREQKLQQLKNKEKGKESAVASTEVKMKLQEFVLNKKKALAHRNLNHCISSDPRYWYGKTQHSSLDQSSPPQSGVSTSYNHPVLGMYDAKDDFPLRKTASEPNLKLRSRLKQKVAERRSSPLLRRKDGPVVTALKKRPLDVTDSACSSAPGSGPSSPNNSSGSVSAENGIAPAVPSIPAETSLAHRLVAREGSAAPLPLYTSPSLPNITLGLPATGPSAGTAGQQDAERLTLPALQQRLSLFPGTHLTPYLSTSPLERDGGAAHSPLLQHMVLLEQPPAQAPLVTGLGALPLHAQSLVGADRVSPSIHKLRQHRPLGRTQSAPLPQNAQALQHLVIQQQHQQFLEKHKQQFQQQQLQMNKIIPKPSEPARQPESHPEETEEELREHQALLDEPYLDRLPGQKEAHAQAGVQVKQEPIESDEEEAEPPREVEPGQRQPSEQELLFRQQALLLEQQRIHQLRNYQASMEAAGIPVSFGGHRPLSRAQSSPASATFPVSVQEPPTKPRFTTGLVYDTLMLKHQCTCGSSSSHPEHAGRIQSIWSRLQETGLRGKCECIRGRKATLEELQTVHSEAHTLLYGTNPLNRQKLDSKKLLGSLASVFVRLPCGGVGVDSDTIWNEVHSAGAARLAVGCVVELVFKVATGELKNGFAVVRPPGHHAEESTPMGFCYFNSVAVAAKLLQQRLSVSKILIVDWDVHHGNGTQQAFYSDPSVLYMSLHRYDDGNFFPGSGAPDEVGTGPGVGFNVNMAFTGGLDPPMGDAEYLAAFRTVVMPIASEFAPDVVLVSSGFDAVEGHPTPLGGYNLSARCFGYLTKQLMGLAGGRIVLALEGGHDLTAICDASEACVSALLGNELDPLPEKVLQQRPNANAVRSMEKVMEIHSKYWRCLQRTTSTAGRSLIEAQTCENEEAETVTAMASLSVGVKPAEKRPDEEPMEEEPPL
Experimental: as §1

Histone deacetylase 6 = target: T1, Histone deacetylase 6 (Mus musculus, UniProt Q9Z2V5)
T1 sequence (Q9Z2V5 whole entry): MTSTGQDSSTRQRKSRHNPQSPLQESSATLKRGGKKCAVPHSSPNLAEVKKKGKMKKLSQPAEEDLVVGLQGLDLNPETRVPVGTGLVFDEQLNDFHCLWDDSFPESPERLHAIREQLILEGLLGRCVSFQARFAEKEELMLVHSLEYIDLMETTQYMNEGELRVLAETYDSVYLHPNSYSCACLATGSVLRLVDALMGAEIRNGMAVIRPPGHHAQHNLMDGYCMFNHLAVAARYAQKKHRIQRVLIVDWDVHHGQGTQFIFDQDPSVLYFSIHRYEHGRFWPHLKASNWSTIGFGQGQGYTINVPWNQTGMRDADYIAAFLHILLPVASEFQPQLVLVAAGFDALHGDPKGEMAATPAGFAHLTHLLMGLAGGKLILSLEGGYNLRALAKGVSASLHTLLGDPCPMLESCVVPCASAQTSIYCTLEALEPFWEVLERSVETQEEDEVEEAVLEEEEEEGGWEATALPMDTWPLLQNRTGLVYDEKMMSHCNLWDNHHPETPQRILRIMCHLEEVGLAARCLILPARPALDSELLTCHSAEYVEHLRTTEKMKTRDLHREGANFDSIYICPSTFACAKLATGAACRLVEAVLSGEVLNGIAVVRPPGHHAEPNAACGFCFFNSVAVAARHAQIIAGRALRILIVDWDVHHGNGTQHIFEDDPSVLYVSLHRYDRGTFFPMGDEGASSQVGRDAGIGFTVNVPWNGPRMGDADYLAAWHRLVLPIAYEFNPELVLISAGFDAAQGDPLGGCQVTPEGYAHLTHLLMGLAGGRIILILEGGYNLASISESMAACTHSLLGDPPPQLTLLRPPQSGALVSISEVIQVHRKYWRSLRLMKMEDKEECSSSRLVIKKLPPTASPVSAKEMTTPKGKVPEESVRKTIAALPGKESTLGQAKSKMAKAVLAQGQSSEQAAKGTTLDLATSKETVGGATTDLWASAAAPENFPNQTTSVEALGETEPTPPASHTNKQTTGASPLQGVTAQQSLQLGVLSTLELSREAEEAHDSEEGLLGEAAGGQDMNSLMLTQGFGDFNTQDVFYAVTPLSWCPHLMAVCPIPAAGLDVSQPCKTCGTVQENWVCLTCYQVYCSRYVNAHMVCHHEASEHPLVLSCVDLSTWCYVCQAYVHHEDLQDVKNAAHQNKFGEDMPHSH
Experimental: as §1

Histone deacetylase 1, sequence (Q13547 whole entry): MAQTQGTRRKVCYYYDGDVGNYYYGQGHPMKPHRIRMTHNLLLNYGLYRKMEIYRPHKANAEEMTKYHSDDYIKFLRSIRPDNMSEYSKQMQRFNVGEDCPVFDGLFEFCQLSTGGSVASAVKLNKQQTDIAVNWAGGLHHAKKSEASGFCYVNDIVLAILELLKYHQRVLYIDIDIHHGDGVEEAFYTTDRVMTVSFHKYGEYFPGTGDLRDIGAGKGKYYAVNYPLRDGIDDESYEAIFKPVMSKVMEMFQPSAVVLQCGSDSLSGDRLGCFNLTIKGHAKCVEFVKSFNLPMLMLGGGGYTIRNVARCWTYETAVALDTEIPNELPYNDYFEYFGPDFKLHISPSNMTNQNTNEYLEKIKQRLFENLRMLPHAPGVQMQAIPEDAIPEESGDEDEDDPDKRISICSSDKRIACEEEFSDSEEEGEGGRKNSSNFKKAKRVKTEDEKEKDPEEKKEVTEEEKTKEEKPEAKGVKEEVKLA

| IC50 (Histone deacetylase 1) | IC50 (Histone deacetylase 4) | IC50 (Histone deacetylase 6) | Structure (SMILES) |
| --- | --- | --- | --- |
| 47 nM | 18 nM | 34 nM | CC(=O)SCCCCC[C@H](NC(=O)OCc1ccccc1)C(=O)Nc1cccc2cccnc12 [Z-L-Am7(Ac)-QA (1)] |
| 10 nM | 11 nM | 45 nM | O=C(CCCCC[C@H](NC(=O)OCc1ccccc1)C(=O)Nc1cccc2cccnc12)NO [(S)-benzyl 8-(hydroxyamino)-1,8-dioxo-1-(quinolin-8-ylamino)octan-2-ylcarbamate] |
| 4.9 nM | 2 nM | 3.2 nM | O=C(N[C@@H](CCCCCSSCCO)C(=O)Nc1cccc2cccnc12)OCc1ccccc1 [Z-L-Am7(betaMe)-QA (3)] |
| 19 nM | 18 nM | 29 nM | COCCOCC(=O)SCCCCC[C@H](NC(=O)OCc1ccccc1)C(=O)Nc1cccc2cccnc12 [Z-L-Am7(AcEtMe)-QA (2)] |
| 8.2 nM | 3.4 nM | 7.5 nM | O=C(NC(CCCCCSSCCCCC[C@H](NC(=O)OCc1ccccc1)C(=O)Nc1cccc2cccnc12)C(=O)Nc1cccc2cccnc12)OCc1ccccc1 (stereo partly drawn) [(Z-L-Am7(S-)-QA)2 (4)] |
